Where two headings read alike, the source gives them in different places.
Tested on: type I collagen deposition in primary lung fibroblasts derived from human tissue
Test: High throughput type I collagen deposition (scar-in-a-jar) high content screening assay
Format: cell-based
Details: Primary lung fibroblast, 72 h, human pulmonary fibroblasts, 384-well, TGF-β 1 ng/ml 72 h
Experimental: Highthroughput, cellular type I collagen deposition was measured by adapting a published method; scar-in-a-jar (Chen et al., 2009) to primary lung fibroblasts derived from human tissue and combining with high content analysis to permit fluorescent quantification of collagen deposited in the extracellular matrix (ECM). The human biological samples were sourced ethically and their research use was in accordance with the terms of the informed consents.
Test compounds were dissolved in 100% DMSO to give 10 mM (stocks) and further diluted to give half log dilutions to generate an 11 point concentration response curve. 1 ul was transferred to 384-well plates (Greiner Group, Kremsmunster, Austria, Catalogue No Greine 781280r).
Human pulmonary fibroblasts were maintained in DMEM media (Gibco, Catalogue No 21969) supplemented with 4 mM L-glutamine (Gibco Catalogue No 25030-024) and 10% heat inactivated FBS (Gibco, Catalogue No 10099-141) at 37° C. in 10% CO2. Cells were harvested and resuspended at 4×10^6 cells/ml in a T175 cell culture flask (BD Falcom, Catalogue No: 353112) containing 50 mL of culture media. After 4 days 37° C. in 10% CO2, cells were harvested and seeded at 4000 cells per well ([…]) into 384-well plates (BD Falcon, Catalogue No 353962Greiner) in assay media (0.4% heat inactivated FBS, 4 mM L-glutamine). Plates were sealed with breathable seals (Sigma, Catalogue No. BEM-1). Assay plates were incubated for 72 h at 37° C. in 10% CO2.
Assay media was supplemented with 112.5 mg/ml Ficoll 70 (Sigma, Catalogue No F2878), 75 mg/ml Ficoll 400 (Sigma, Catalogue No F4375) and 50 µg/ml ascorbic acid (Sigma, Catalogue No A8960). 30 μL assay media were added to 1 l compound ([…] compound concentration in 1% DMSO). Diluted compounds (10 μL) were transferred to plates containing cells and incubated for 3 h at 37° C. in 10% CO2. Transforming growth factor (TGF)-β (R&D systems, Catalogue No 100-B/CF) was reconstituted to give 10 µg/mL (stock) and further diluted in assay media containing Ficoll and ascorbic acid (1 in 3333). TGF-β was added to cell plates (1 ng/ml final) and cells incubated for 72 h at 37° C. in 10% CO2.
Media was aspirated from cells and 30 µL/well 100% ice-cold methanol added and incubated at RT for 5 min to fix cells. Methanol was aspirated and cells washed with PBS (3×). To block and permeabilise, cells were incubated with PBS containing 1% BSA and 0.1% Triton X 100 for 20 min, followed by PBS wash (3×). Cells were incubated with mouse anti human type I collagen monoclonal antibody (Sigma, Catalogue No C2456) diluted 1:1000 in PBS for 24 h at 4° C. Cells were washed with PBS containing 0.1% Tween-20 (3×) and incubated with secondary alexa fluor 488 goat-anti-mouse antibody (Invitrogen, Catalogue No A11001, 1 in 500 in PBS) and Hoechst 33342 (Sigma, Catalogue No H21492), 1 in 1000 in PBS) for 1 h at RT, prior to washing with PBS containing 0.1% Tween (×4).
Type I collagen immunoreactivity was detected using the INCell 2000 Analyzer (GE Healthcare, INcell 2000) set to excitation and emission wavelengths for DAPI and FITC with laser focus and exposure adjusted to appropriate levels. Images were imported and analysed using Columbus software (Perkin Elmer) and computational algorithms to quantify “total collagen area” and “cell count”.
Data analysis was performed by determining 0/inhibition values for test compounds relative to the minimum (media only) and maximum responses (TGF-βstimulation) with non-linear regression analysis to determine IC50 values for test compounds.

[1] = selected compounds, read-out: Scar in a jar (mean pIC50 values when tested in the scar-in-a-jar assay) (converted)
[2] = total collagen area, read-out: mean pIC50, high throughput type I collagen deposition (scar-in-a-jar) (converted)

SMILES	IC50 [1] [nM]	IC50 [2] [nM]
CC[C@H]1COCCN1c1cc(CS(C)(=O)=O)nc(-c2ccc3[nH]c(CNC)cc3n2)n1 [Example 1, [(5-{4-[(3S)-3-ethylmorpholin-4-yl]-6-(methanesulfonylmethyl)pyrimidin-2-yl}-1H-pyrrolo[3,2-b]pyridin-2-yl)methyl](methyl)amine]	251	20 to 3160
CC[C@H]1COCCN1c1cc(CS(C)(=O)=O)nc(-c2ccc3[nH]c(CO)cc3n2)n1 [Example 2, (S)-(5-(4-(3-ethylmorpholino)-6-((methylsulfonyl)methyl)pyrimidin-2-yl)-1H-pyrrolo[3,2-b]pyridin-2-yl)methanol]	–	20 to 3160
CC[C@H]1COCCN1c1cc(C2(S(C)(=O)=O)CCOCC2)nc(-c2ccc3[nH]c(CO)cc3n2)n1 [Example 4, (5-{4-[(3S)-3-ethylmorpholin-4-yl]-6-(4-methanesulfonyloxan-4-yl)pyrimidin-2-yl}-1H-pyrrolo[3,2-b]pyridin-2-yl)methanol]	–	20 to 3160
CC[C@H]1COCCN1c1cc(CS(N)(=O)=O)nc(-c2ccc3[nH]c(CNC)cc3n2)n1 [Example 6, {6-[(3S)-3-ethylmorpholin-4-yl]-2-{2-[(methylamino)methyl]-1H-pyrrolo[3,2-b]pyridin-5-yl}pyrimidin-4-yl}methanesulfonamide]	–	20 to 3160
CNCc1cc2nc(-c3cc(CS(C)(=O)=O)cc(N4CCO[C@H](C)[C@H]4C)n3)ccc2[nH]1 [Example 8, 1-(5-(6-((2R,3R)-2,3-dimethylmorpholino)-4-((methylsulfonyl)methyl)pyridin-2-yl)-1Hpyrrolo[3,2-b]pyridin-2-yl)-Nmethylmethanamine]	–	20 to 3160
CC[C@H]1COCCN1c1cc(CS(=O)(=O)N(C)C)nc(-c2ccc3[nH]c(CO)cc3n2)n1 [Example 9, 1-{6-[(3S)-3-ethylmorpholin-4-yl]-2-[2-(hydroxymethyl)-1H-pyrrolo[3,2-b]pyridin-5-yl]pyrimidin-4-yl}-N,N-dimethylmethanesulfonamide]	–	20 to 3160
CC[C@H]1COCCN1c1cc(CS(=O)(=O)NC)nc(-c2ccc3[nH]c(CO)cc3n2)n1 [Example 10, 1-{6-[(3S)-3-ethylmorpholin-4-yl]-2-[2-(hydroxymethyl)-1H-pyrrolo[3,2-b]pyridin-5-yl]pyrimidin-4-yl}-N-methylmethanesulfonamide]	–	20 to 3160
CC[C@H]1COCCN1c1cc(C2(S(C)(=O)=O)CCOCC2)nc(-c2ccc3[nH]c(C)cc3n2)n1 [Example 13, (3S)-3-ethyl-4-[6-(4-methanesulfonyloxan-4-yl)-2-{2-methyl-1H-pyrrolo[3,2-b]pyridin-5-yl}pyrimidin-4-yl]morpholine]	–	20 to 3160
CC[C@H]1COCC(=O)N1c1cc(CS(C)(=O)=O)nc(-c2ccc3[nH]c(C)cc3n2)n1 [Example 14, (5S)-5-ethyl-4-[6-(methanesulfonylmethyl)-2-{2-methyl-1H-pyrrolo[3,2-b]pyridin-5-yl}pyrimidin-4-yl]morpholin-3-one]	25.1	20 to 3160
CCc1cc2nc(-c3nc(CS(C)(=O)=O)cc(N4C(=O)COC[C@@H]4CC)n3)ccc2[nH]1 [Example 15, (5S)-5-ethyl-4-(2-{2-ethyl-1H-pyrrolo[3,2-b]pyridin-5-yl}-6-(methanesulfonylmethyl)pyrimidin-4-yl)morpholin-3-one]	158	20 to 3160
CC[C@H]1COCCN1c1cc(CS(=O)(=O)N(C)C)nc(-c2ccc3[nH]c(CNC)cc3n2)n1 [Example 16, 1-{6-[(3S)-3-ethylmorpholin-4-yl]-2-{2-[(methylamino)methyl]-1H-pyrrolo[3,2-b]pyridin-5-yl}pyrimidin-4-yl}-N,N-dimethylmethanesulfonamide]	100	20 to 3160
CC[C@H]1COCCN1c1cc(C2(S(C)(=O)=O)CCNCC2)cc(-c2ccc3[nH]c(C)cc3n2)n1 [Example 18, (S)-3-ethyl-4-(6-(2-methyl-1H-pyrrolo[3,2-b]pyridin-5-yl)-4-(4-(methylsulfonyl)piperidin-4-yl)pyridin-2-yl)morpholine]	158	20 to 316
CC[C@H]1COCCN1c1cc(CS(N)(=O)=O)cc(-c2ccc3[nH]c(C)cc3n2)n1 [Example 23, (S)-(2-(3-ethylmorpholino)-6-(2-methyl-1H-pyrrolo[3,2-b]pyridin-5-yl)pyridin-4-yl)methanesulfonamide]	–	20 to 3160
CC[C@H]1COCC(=O)N1c1cc(CS(C)(=O)=O)cc(-c2ccc3[nH]c(C)cc3n2)n1 [Example 24, (S)-5-ethyl-4-(6-(2-methyl-1H-pyrrolo[3,2-b]pyridin-5-yl)-4-((methylsulfonyl)methyl)pyridin-2-yl)morpholin-3-one]	126	20 to 3160
CC[C@H]1COCC(=O)N1c1cc(C2(S(C)(=O)=O)CCOCC2)cc(-c2ccc3[nH]c(C)cc3n2)n1 [Example 25, (S)-5-ethyl-4-(6-(2-methyl-1H-pyrrolo[3,2-b]pyridin-5-yl)-4-(4-(methylsulfonyl)tetrahydro-2H-pyran-4-yl)pyridin-2-yl)morpholin-3-one]	–	20 to 3160
CC[C@H]1COCC(=O)N1c1cc(C2(S(C)(=O)=O)CCOCC2)cc(-c2ccc3[nH]c(CO)cc3n2)n1 [Example 26]	–	20 to 3160
CC[C@H]1COCC(=O)N1c1cc(CS(C)(=O)=O)cc(-c2ccc3[nH]c(CO)cc3n2)n1 [Example 27]	–	20 to 3160
